Data reported in US9216992B2, “Thieno[3,2-c]pyridine potassium channel inhibitors” (Xention Limited, priority 2005, dated 2015).

Tests used:
[1] = molecular target: T1, human Kv1.3 (Homo sapiens, UniProt P22001); assay: Kv1.3 Autopatch Electrophysiology; type: cell-based; conditions: 1 μM compound, CHO cells stably transfected with human Kv1.3, AutoPatch whole cell mode, room temperature; for inhibition at 1 µM: read-out: Kv 1.3% Inhibition at 1 μM
T1 construct: expressed in transfected cells; host or cells: stably transfected cells
Procedure: Kv1.3 Autopatch Electrophysiology Method
(§1) Cells stably transfected with cDNA for human Kv1.3 (in pcDNA3.1) were grown in Ex-cell 302 serum-free medium for CHO cells, supplemented with 10 μl/ml [100×] glutamine, 500 μg/ml G418 (gentimicin), and 1% HT supplement (50×, hypoxanthine and thymidine). Compounds were tested on these cells using the AutoPatch technology in whole cell mode.
The external bathing solution contained (in mM): 150 NaCl, 10 KCl, 1 MgCl2, 3 CaCl2, 10 HEPES, pH 7.4 with NaOH. Patch pipettes were filled with an electrode solution of composition (in mM): 100 K-Gluconate, 20 KCl, 1 MgCl2, 1 CaCl2, 10 HEPES, 11 EGTA, 5 ATP—Na2, 2 Glutathione pH 7.2 with KOH.
(§2) Compounds were dissolved in DMSO (100%) and made up in the external bather at a concentration of 1 μM. All experiments were conducted at room temperature (22-24° C.).
(§3) A cell suspension (10 ml), with a density of 100,000 cells/ml, was aliquoted into a 15 ml centrifuge tube and transferred to an incubator (37° C., 5% CO2) for approximately one hour before use. Following 60 min incubation, a tube was taken and centrifuged at 1000 rpm for 4 mins at room temperature. 9.5 ml supernatant was thence discarded, leaving a cell pellet at the bottom of the tube. The pellet was then resuspended using 100 μl of cold (4° C.), filtered (0.22 μm), 0.2% BSA/bather solution (0.02 g BSA/10 ml bather). The bottom of the tube was manually agitated gently until the solution became cloudy with cells. The 100 μl cell resuspension solution was then stored on the bench at 4° C. (using a Peltier-based temperature control device) until used.
(§4) A length of capillary glass (1B150F-4, WPI) was dipped into the cell suspension solution, such that ˜3 cm column of fluid was taken up by capillary action. A Ag/AgCl wire was dropped into the non-dipped end of the capillary also. The outside of the solution-filled end of the capillary was then dried and the capillary was loaded into the AutoPatch™. Borosilicate glass patch pipettes (from 1.5 mm OD, thin-walled filamented, GC150-TF capillary glass, Harvard) were pulled using a DMZ pipette puller (Zeitz Instruments), and were back-filled using the internal pipette solution, being careful that no bubbles remain at the tip or in the body of the pipette. Patch pipettes typically had resistances of 2.3-3.5 MΩ. Once filled, the pipette tip and a proportion of the shaft (˜15 mm) were dipped into Sigmacote (Sigma). The recording pipette was then loaded into the AutoPatch™. Automated patch-clamping was initiated by the operator, but thereafter AutoPatch.exe continued the experiment providing that pre-set conditions and criteria were satisfied.
(§5) Whole cell patch-clamp recordings were made using the AutoPatch™ rig, which incorporated an EPC9 or EPC10 amplifier (HEKA, Germany) under control of Pulse software (v8.54 or v8.76, HEKA, Germany), a motion controller with 2 translators (Newport, UK), valve controller (VF1) and a c-level suction device all at room temperature (22-24° C.). This equipment was completely under the control of AutoPatch.exe and operator intervention was only made when there was a requirement to refill the drug reservoirs or to prevent the loss of a cell due to a technical error. Cells with an Rseries greater than 18 MΩ were discounted from the experiment.
(§6) Qualification stages prior to perfusion and drug application ensured that the observed current met the criteria for the experiment. Only those cells with an IK>400 pA were used for experiments. Cells were continuously perfused with external solution at a flow rate of 1.8-2 ml/minute. […] Online analysis of the hKv1.3 current during the application of compounds was performed by the AutoPatch™ software. Voltage-step protocols and analysis of data was performed as described for conventional electrophysiology.
(§7) Electrophysiology voltage-step protocols and analysis of data was performed as follows. Data was sampled at 5 kHz, and filtered with a −3 dB bandwidth of 2.5 kHz. Cells were held at a voltage of −80 mV. […]

[2] = molecular target: T2, human Kv1.5 (Homo sapiens, UniProt P22460); assay: Kv1.5 Autopatch Electrophysiology; type: cell-based; conditions: 1 μM compound, CHO cells stably transfected with human Kv1.5, AutoPatch whole cell mode, room temperature; for inhibition at 1 µM: read-out: Kv 1.5% Inhibition at 1 μM
T2 construct: expressed in transfected cells; host or cells: stably transfected cells
Procedure: Kv1.5 Autopatch Electrophysiology Method
as §1, with “Kv1.5” for “Kv1.3”, “pEF6::VA-His-TOPO)” for “pcDNA3.1)”, “5” for “500”, “blasticidin” for “G418 (gentimicin),”
The external bathing solution contained (in mM): 150 NaCl, 10 KCl, 1 MgCl2, 3 CaCl2, 10 HEPES, pH 7.4 with NaOH. Patch pipettes were filled with an electrode solution of composition (in mM): 160 KCl, 0.5 MgCl2, 10 HEPES, 1 EGTA, pH 7.4 with KOH.
as §2, §3, §4, §5
as §6, with “IK>500” for “IK>400”, “hKv1.5” for “hKv1.3”
as §7

T1 sequence (P22001 whole entry): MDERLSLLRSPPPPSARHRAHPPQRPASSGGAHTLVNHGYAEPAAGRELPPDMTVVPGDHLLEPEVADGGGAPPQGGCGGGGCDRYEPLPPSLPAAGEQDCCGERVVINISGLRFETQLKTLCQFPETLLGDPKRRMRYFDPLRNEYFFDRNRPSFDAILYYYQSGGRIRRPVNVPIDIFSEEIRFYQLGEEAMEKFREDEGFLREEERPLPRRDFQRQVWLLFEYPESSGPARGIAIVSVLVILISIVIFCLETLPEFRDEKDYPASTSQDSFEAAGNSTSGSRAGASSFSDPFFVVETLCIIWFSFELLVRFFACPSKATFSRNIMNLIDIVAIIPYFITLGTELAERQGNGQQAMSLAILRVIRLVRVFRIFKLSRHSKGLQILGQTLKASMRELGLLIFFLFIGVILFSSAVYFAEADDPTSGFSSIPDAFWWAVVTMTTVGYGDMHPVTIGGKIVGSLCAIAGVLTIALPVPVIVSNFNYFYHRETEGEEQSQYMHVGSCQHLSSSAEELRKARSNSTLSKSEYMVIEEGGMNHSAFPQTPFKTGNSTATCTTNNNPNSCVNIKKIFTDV
T2 sequence (P22460 whole entry): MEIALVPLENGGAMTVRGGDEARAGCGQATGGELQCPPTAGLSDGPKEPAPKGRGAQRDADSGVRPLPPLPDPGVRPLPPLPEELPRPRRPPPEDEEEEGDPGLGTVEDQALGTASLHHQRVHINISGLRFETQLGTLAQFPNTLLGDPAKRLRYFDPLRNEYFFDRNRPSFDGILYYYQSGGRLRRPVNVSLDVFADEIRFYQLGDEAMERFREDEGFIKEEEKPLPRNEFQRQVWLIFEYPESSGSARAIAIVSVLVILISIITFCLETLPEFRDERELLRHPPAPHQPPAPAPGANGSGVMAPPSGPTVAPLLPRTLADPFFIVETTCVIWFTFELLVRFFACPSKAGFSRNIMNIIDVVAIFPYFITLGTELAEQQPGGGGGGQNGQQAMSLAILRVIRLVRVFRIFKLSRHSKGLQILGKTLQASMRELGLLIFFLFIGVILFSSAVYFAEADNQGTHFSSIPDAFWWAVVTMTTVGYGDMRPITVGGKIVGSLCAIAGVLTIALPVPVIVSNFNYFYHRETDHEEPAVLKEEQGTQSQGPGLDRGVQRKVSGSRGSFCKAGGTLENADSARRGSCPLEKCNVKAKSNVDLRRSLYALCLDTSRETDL

| inhibition at 1 µM [1] [%] | inhibition at 1 µM [2] [%] | Kv 1.3% Inhibition at 1 μM [1] [%] | Kv 1.5% Inhibition at 1 μM [2] [%] | Compound |
| --- | --- | --- | --- | --- |
| 58.1 | 70.5 |  |  | c1ccc(CNc2nccc3scc(-c4ccc5c(c4)OCO5)c23)cc1 [Example 25, (3-Benzo[1,3]dioxol-5-yl-thieno[3,2-c]pyridin-4-yl)-benzyl-amine] |
| 48.4 | 80.4 |  |  | c1ccc(-c2csc3ccnc(NCc4ccco4)c23)cc1 [Example 26, Furan-2-ylmethyl-(3-phenyl-thieno[3,2-c]pyridin-4-yl)amine] |
| 45.9 | 70.4 |  |  | Fc1ccc(-c2csc3ccnc(NCc4ccco4)c23)cc1 [Example 27, [3-(4-Fluoro-phenyl)-thieno[3,2-c]pyridin-4-yl]-furan-2-ylmethyl-amine] |
| 72.7 | 91.9 |  |  | COc1cccc(-c2csc3ccnc(NCc4ccco4)c23)c1 [Example 28, Furan-2-ylmethyl-[3-(3-methoxy-phenyl)-thieno[3,2-c]pyridin-4-yl]-amine] |
| 66.2 | 86.1 |  |  | Cc1ccc(-c2csc3ccnc(NCc4ccco4)c23)cc1 [Example 29, Furan-2-ylmethyl-(3-p-tolyl-thieno[3,2-c]pyridin-4-yl)-amine] |
|  |  | 82.8 | 65.8 | c1ccc(CCCCNc2nccc3scc(-c4ccccc4)c23)cc1 [Example 30, (4-Phenyl-butyl)-(3-phenyl-thieno[3,2-c]pyridin-4-yl)-amine] |
|  |  | 71.8 | 78.4 | Cc1cccnc1CNc1nccc2scc(-c3ccccc3)c12 [Example 31, (3-Methyl-pyridin-2-ylmethyl)-(3-phenyl-thieno[3,2-c]pyridin-4-yl)-amine] |
| 24.4 | 39.2 |  |  | Cc1ccc(-c2cnc(NCc3ccccc3)c3c(-c4ccc(C)cc4)csc23)cc1 [Example 33, Benzyl-(3,7-di-p-tolyl-thieno[3,2-c]pyridine-4-yl)-amine] |
| 8.1 | 25.6 |  |  | Cc1ccc(-c2csc3c(-c4ccccc4)cnc(NCc4ccccc4)c23)cc1 [Example 34, Benzyl-(7-phenyl-3-p-tolyl-thieno[3,2-c]pyridine-4-yl)-amine] |
| 12.6 | 33.3 |  |  | Cc1ccc(-c2csc3c(-c4ccccc4O)cnc(NCc4ccccc4)c23)cc1 [Example 35, 2-(4-Benzylamino-3-p-tolyl-thieno[3,2-c]pyridin-7-yl)-phenol] |
| 15.5 | 52.4 |  |  | Cc1ccc(-c2csc3c(-c4cccc(O)c4)cnc(NCc4ccccc4)c23)cc1 [Example 36, 3-(4-Benzylamino-3-p-tolyl-thieno[3,2-c]pyridin-7-yl)-phenol] |
| 15.7 | 39.9 |  |  | Cc1ccc(-c2csc3c(-c4ccc(O)cc4)cnc(NCc4ccccc4)c23)cc1 [Example 37, 4-(4-Benzylamino-3-p-tolyl-thieno[3,2-c]pyridin-7-yl)-phenol] |
| 41.3 | 84.8 |  |  | Cc1ccc(-c2csc3c(-c4cccc(C(=O)O)c4)cnc(NCc4ccccc4)c23)cc1 [Example 38, 3-(4-Benzylamino-3-p-tolyl-thieno[3,2-c]pyridin-7-yl)-benzoic acid] |

Further lines, the molecule ahead of its results:

| Compound | inhibition at 1 µM [1] [%] | inhibition at 1 µM [2] [%] | Kv 1.3% Inhibition at 1 μM [1] [%] | Kv 1.5% Inhibition at 1 μM [2] [%] |
| --- | --- | --- | --- | --- |
| c1ccc(-c2csc3ccnc(NCc4ccccn4)c23)cc1 [Example 12, (3-Phenyl-thieno[3,2-c]pyridin-4-yl)-pyridin-2ylmethyl-amine] | 46.1 | 59.6 |  |  |
| COc1cccc(-c2csc3ccnc(NCc4cccs4)c23)c1 [Example 13, [3-(3-Methoxy-phenyl)-thieno[3,2-c]pyridin-4-yl]-thiophen-2-ylmethyl-amine] | 83.2 | 89.4 |  |  |
| c1ccc(-c2csc3ccnc(NCc4cccs4)c23)cc1 [Example 14, (3-Phenyl-thieno[3,2-c]pyridin-4-yl)-thiophen-2-ylmethyl-amine] | 91.2 | 81.9 |  |  |
| Fc1ccc(-c2csc3ccnc(NCc4cccs4)c23)cc1 [Example 15, [3-(4-Fluoro-phenyl)-thieno[3,2-c]pyridin-4-yl]thiophen-2-ylmethyl-amine] | 91.9 | 87.2 |  |  |
| c1csc(CNc2nccc3scc(-c4ccc5c(c4)OCO5)c23)c1 [Example 16, (3-Benzo[1,3]dioxol-5-yl-thieno[3,2-c]pyridin-4-yl)-thiophen-2-ylmethyl-amine] | 90.3 | 81.2 |  |  |
| Fc1ccc(-c2csc3ccnc(NCc4ccc5c(c4)OCCO5)c23)cc1 [Example 17, (2,3-Dihydro-benzo[1,4]dioxin-6-ylmethyl)-[3-(4-fluoro-phenyl)-thieno[3,2-c]pyridin-4-yl]-amine] | 59.6 | 86.1 |  |  |
| c1ccc(-c2csc3ccnc(NCc4ccc5c(c4)OCCO5)c23)cc1 [Example 18, (2,3-Dihydro-benzo[1,4]dioxin-6-ylmethyl)-(3-phenyl-thieno[3,2-c]pyridin-4-yl)-amine] | 76.9 | 85.3 |  |  |
| COc1cccc(-c2csc3ccnc(NCc4ccc5c(c4)OCCO5)c23)c1 [Example 19, (2,3-Dihydro-benzo[1,4]dioxin-6-ylmethyl)-[3-(3-methoxy-phenyl)-thieno[3,2-c]pyridin-4-yl)-amine] | 73.5 | 75.6 |  |  |
| c1cc2scc(-c3ccc4c(c3)OCO4)c2c(NCc2ccc3c(c2)OCCO3)n1 [Example 20, (3-Benzo[1,3]dioxol-5-yl-thieno[3,2-c]pyridin-4-yl)-(2,3-dihydro-benzo[1,4]dioxin-6-ylmethyl)-amine] | 83.5 | 90.2 |  |  |
| c1ccc(CNc2nccc3scc(-c4ccccc4)c23)cc1 [Example 21, Benzyl-(3-phenyl-thieno[3,2-c]pyridin-4-yl)-amine] | 61.5 | 77.4 |  |  |
| Fc1ccc(-c2csc3ccnc(NCc4ccccc4)c23)cc1 [Example 22, Benzyl-[3-(4-fluoro-phenyl)-thieno[3,2-c]pyridin-4-yl]-amine] | 68.6 | 90.2 |  |  |
| COc1cccc(-c2csc3ccnc(NCc4ccccc4)c23)c1 [Example 23, Benzyl-[3-(3-methoxy-phenyl)-thieno[3,2-c]pyridin-4-yl]-amine] | 58 | 79.6 |  |  |
| Cc1ccc(-c2csc3ccnc(NCc4ccccc4)c23)cc1 [Example 24, Benzyl-(3-p-tolyl-thieno[3,2-c]pyridin-4-yl)-amine] | 81.2 | 90.2 |  |  |
